For 40 compounds, IC50 results are on record in US7846963B2, “2-oxo-heterocyclic compounds and the pharmaceutical compositions comprising the same” (Korea Research Institute of Bioscience and Biotechnology, priority 2003, dated 2010).

One may read the IC50 as the midpoint of a concentration-inhibition curve. High values mean lower potency, low ones higher potency.

The subject of the assay is production of TNF-alpha in RAW 264.7 cells. Nature of the assay: Inhibition of TNF-alpha production in LPS-treated RAW 264.7 cells, ELISA of culture supernatant. Type of assay: cell-based, mouse. To be noted: Mus musculus, RAW264.7, Table 23, LPS 0.3 μg/ml, 24 hours, compounds up to 10 μM, IC50 unit inferred. The method, then:
To test the inhibiting activity of the compounds prepared from above Examples on the production of TNF-alpha, the concentration of TNF-alpha in the cell supernatant was measured.
Each 200 μl of RAW 264.7 cells (ATCC, USA), a mouse macrophage cell line was seeded onto each well of 96-well microtiter plate (Nunc, Sweden) to the concentration ranging from 1×10^6 cells/ml to 5×10^6 cells/ml, and incubated in DMEM (Dulbeco's modified eagles medium) media containing 5% FBS (fetal bovine serum) at 37° C. in 5% CO2 incubator.
Various concentrations of the compounds of the present invention ranging from […] to 10 μM and LPS (Sigma, USA) in the final concentration of 0.3 μg/ml were treated to activated cell simultaneously. The treated cells were cultured at 37° C. for 24 hours in 5% CO2 incubator and the cultured cells were collected after the cultivation
And then the concentration of TNF-alpha secreted from the culture supernatant of RAW 264.7 cells was determined by ELISA according to the manufacture's instruction (R&D Systems, Minneapolis, Minn.).
The result was shown in Table 23 (AA: IC50's<1, A: IC50's<5, B: IC50's<10, C: IC50's>10).
For orientation: ELISA stands for enzyme-linked immunosorbent assay.
On to `COc1ccc(CN2CC=C(CCC(=O)NO)C2=O)c(OC)c1` [Example 1, 3-[1-(2,4-Dimethoxybenzyl)-2-oxo-2,5-dihydro-1H-pyrrol-3-yl]-N-hydroxypropionamide], for which the half-maximal inhibitory concentration (IC50) is less than 10 µM.

As to `O=C(CCC1=CCN(Cc2ccccc2)C1=O)NO` [Example 2, 3-(1-benzyl-2-oxo-2,5-dihydro-1H-pyrrol-3-yl)-N-hydroxy-propionamide], the IC50 was less than 5 µM.

As to `O=C(CCC1=CCN(CCc2ccccc2)C1=O)NO` [Example 3, N-hydroxy-3-(2-oxo-1-phenethyl-2,5-dihydro-1H-pyrrol-3-yl)-propionamide], the IC50 was less than 5 µM.

Compound `O=C(CCC1=CCN(CCCc2ccccc2)C1=O)NO` [Example 4, N-hydroxy-3-[2-oxo-1-(3-phenyl-propyl)-2,5-dihydro-1H-pyrrol-3-yl]-propionamide] registered an IC50 of less than 1 µM.

`O=C(CCC1=CCN(CCCCc2ccccc2)C1=O)NO` [Example 5, N-hydroxy-3-[2-oxo-1-(4-phenyl-butyl)-2,5-dihydro-1H-pyrrol-3-yl]-propionamide]: the IC50 was less than 5 µM.

With `Cc1ccccc1CN1CC=C(CCC(=O)NO)C1=O` [Example 6, N-hydroxy-3-[1-(2-methyl-benzyl)-2-oxo-2,5-dihydro-1H-pyrrol-3-yl]-propionamide], the IC50 was less than 5 µM.

`Cc1cccc(CN2CC=C(CCC(=O)NO)C2=O)c1` [Example 7, N-hydroxy-3-[1-(3-methyl-benzyl)-2-oxo-2,5-dihydro-1H-pyrrol-3-yl]-propionamide]: the IC50 is less than 5 µM.

In the case of `Cc1ccc(CN2CC=C(CCC(=O)NO)C2=O)cc1` [Example 8, N-hydroxy-3-[1-(4-methyl-benzyl)-2-oxo-2,5-dihydro-1H-pyrrol-3-yl]-propionamide], the IC50 is less than 5 µM.

`COc1ccccc1CN1CC=C(CCC(=O)NO)C1=O` [Example 9, N-hydroxy-3-[1-(2-methoxy-benzyl)-2-oxo-2,5-dihydro-1H-pyrrol-3-yl]-propionamide] registered an IC50 of less than 10 µM.

Regarding `COc1cccc(CN2CC=C(CCC(=O)NO)C2=O)c1` [Example 10, N-hydroxy-3-[1-(3-methoxy-benzyl)-2-oxo-2,5-dihydro-1H-pyrrol-3-yl]-propionamide], the half-inhibitory concentration (IC50) was less than 5 µM.

For the compound `COc1ccc(CN2CC=C(CCC(=O)NO)C2=O)cc1` [Example 11, N-hydroxy-3-[1-(4-methoxy-benzyl)-2-oxo-2,5-dihydro-1H-pyrrol-3-yl]-propionamide], the IC50 is less than 1 µM.

Turning to `O=C(CCC1=CCN(Cc2ccc(Br)cc2)C1=O)NO` [Example 12, 3-[1-(4-bromo-benzyl)-2-oxo-2,5-dihydro-1H-pyrrol-3-yl]-N-hydroxy-propionamide], the IC50 was less than 1 µM.

Compound `O=C(CCC1=CCN(Cc2ccc(Cl)cc2)C1=O)NO` [Example 13, 3-[1-(4-chloro-benzyl)-2-oxo-2,5-dihydro-1H-pyrrol-3-yl]-N-hydroxy-propionamide] had an IC50 of less than 5 µM.

For `O=C(CCC1=CCN(Cc2ccc(OCc3ccccc3)cc2)C1=O)NO` [Example 14, 3-[1-(4-benzyloxy-benzyl)-2-oxo-2,5-dihydro-1H-pyrrol-3-yl]-N-hydroxy-propionamide], the IC50 is more than 10 µM.

`O=C(CCC1=CCN(Cc2ccc([N+](=O)[O-])cc2)C1=O)NO` [Example 15, N-hydroxy-3-[1-(4-nitro-benzyl)-2-oxo-2,5-dihydro-1H-pyrrol-3-yl]-propionamide] displayed an IC50 of less than 10 µM.

Take `COc1ccc(CN2CC=C(CCC(=O)O)C2=O)c(OC)c1` [Example 16, 3-[1-(2,4-dimethoxy-benzyl)-2-oxo-2,5-dihydro-1H-pyrrol-3-yl]-propionic acid]: the IC50 is more than 10 µM.

With `O=C(O)CCC1=CCN(Cc2ccccc2)C1=O` [Example 17, 3-(1-benzyl-2-oxo-2,5-dihydro-1H-pyrrol-3-yl)-propionic acid], the IC50 was more than 10 µM.

Turning to `O=C(CCC1=CCN(Cc2ccc(NC(=O)c3ccccc3)cc2)C1=O)NO` [Example 18, N-{4-[3-(2-hydroxycarbamoyl-ethyl)-2-oxo-2,5-dihydro-pyrrole-1-yl-methyl]-phenyl}-benzamide], the IC50 is more than 10 µM.

The compound `Cc1ccc(S(=O)(=O)Nc2ccc(CN3CC=C(CCC(=O)NO)C3=O)cc2)cc1` [Example 19, N-hydroxy-3-{2-oxo-1-[4-(toluene-4-sulfonylamino)-benzyl]-2,5-dihydro-1H-pyrrol-3-yl}-propionamide] had an IC50 of less than 10 µM.

Turning to `O=C(CC1=CCN(Cc2ccccc2)C1=O)NO` [Example 20, 2-(1-benzyl-2-oxo-2,5-dihydro-1H-pyrrol-3-yl)-N-hydroxy-acetamide], the IC50 was more than 10 µM.

In turn, `COc1ccc(CN2CC=C(CC(=O)NO)C2=O)c(OC)c1` [Example 21, 2-[1-(2,4-dimethoxy-benzyl)-2-oxo-2,5-dihydro-1H-pyrrol-3-yl]-N-hydroxy-acetamide] had an IC50 of more than 10 µM.

In turn, `O=C(CC1=CCN(CCc2ccccc2)C1=O)NO` [Example 22, N-hydroxy-2-(2-oxo-1-phenethyl-2,5-dihydro-1H-pyrrol-3-yl)-acetamide] yielded an IC50 of more than 10 µM.

On to `O=C(CC1=CCN(CCCCc2ccccc2)C1=O)NO` [Example 23, N-hydroxy-2-[2-oxo-1-(4-phenyl-butyl)-2,5-dihydro-1H-pyrrol-3-yl]-acetamide], for which the IC50 is more than 10 µM.

On to `O=C(CC1CCN(Cc2ccccc2)C1=O)NO` (stereo not shown) [Example 25, 2-(1-benzyl-2-oxo-pyrrolidin-3-yl)-N-hydroxy-acetamide], for which the IC50 was more than 10 µM.

Consider `COc1ccc(CN2CCC(CC(=O)NO)C2=O)c(OC)c1` (stereo not shown) [Example 26, 2-[1-(2,4-dimethoxy-benzyl)-2-oxo-pyrrolidin-3-yl]-N-hydroxy-acetamide], for which the IC50 was more than 10 µM.

Regarding `O=C(CC1CCN(CCc2ccccc2)C1=O)NO` (stereo not shown) [Example 27, N-hydroxy-2-(2-oxo-1-phenethyl-pyrrolidin-3-yl)-acetamide], the IC50 is more than 10 µM.

As for `O=C(CCC1=CCN(CCc2ccccc2F)C1=O)NO` [Example 28, 3-{1-[2-(2-fluoro-phenyl)-ethyl]-2-oxo-2,5-dihydro-1H-pyrrol-3-yl}-N-hydroxy-propionamide], the IC50 is less than 5 µM.

`O=C(CCC1=CCN(CCc2cccc(F)c2)C1=O)NO` [Example 29, 3-{1-[2-(3-fluoro-phenyl)-ethyl]-2-oxo-2,5-dihydro-1H-pyrrol-3-yl}-N-hydroxy-propionamide] displayed an IC50 of less than 5 µM.

`O=C(CCC1=CCN(CCc2ccc(F)cc2)C1=O)NO` [Example 30, 3-{1-[2-(4-fluoro-phenyl)-ethyl]-2-oxo-2,5-dihydro-1H-pyrrol-3-yl}-N-hydroxy-propionamide] gave an IC50 of less than 5 µM.

`O=C(CCC1=CCN(CCc2ccccc2[N+](=O)[O-])C1=O)NO` [Example 31, N-hydroxy-3-{1-[2-(2-nitro-phenyl)-ethyl]-2-oxo-2,5-dihydro-1H-pyrrol-3-yl}-propionamide] showed an IC50 of more than 10 µM.

The compound `O=C(CCC1=CCN(CCc2cccc([N+](=O)[O-])c2)C1=O)NO` [Example 32, N-hydroxy-3-{1-[2-(3-nitro-phenyl)-ethyl]-2-oxo-2,5-dihydro-1H-pyrrol-3-yl}-propionamide] returned an IC50 of more than 10 µM.

Compound `O=C(CCC1=CCN(CCc2ccc([N+](=O)[O-])cc2)C1=O)NO` [Example 33, N-hydroxy-3-{1-[2-(4-nitro-phenyl)-ethyl]-2-oxo-2,5-dihydro-1H-pyrrol-3-yl}-propionamide] gave an IC50 of less than 10 µM.

The compound `O=C(CCC1=CCN(CCc2ccccc2Br)C1=O)NO` [Example 34, 3-{1-[2-(2-bromo-phenyl)-ethyl]-2-oxo-2,5-dihydro-1H-pyrrol-3-yl}-N-hydroxy-propionamide] displayed an IC50 of less than 5 µM.

`O=C(CCC1=CCN(CCc2ccc(Br)cc2)C1=O)NO` [Example 35, 3-{1-[2-(4-bromo-phenyl)-ethyl]-2-oxo-2,5-dihydro-1H-pyrrol-3-yl}-N-hydroxy-propionamide] showed an IC50 of less than 5 µM.

Turning to `Cc1ccc(CCCN2CC=C(CCC(=O)NO)C2=O)cc1` [Example 40, N-hydroxy-3-[2-oxo-1-(3-p-tolyl-propyl)-2,5-dihydro-1H-pyrrol-3-yl]-propionamide], the IC50 is less than 1 µM.

On to `CC(C)c1ccc(CCCN2CC=C(CCC(=O)NO)C2=O)cc1` [Example 43, N-hydroxy-3-{1-[3-(4-isopropyl-phenyl)-propyl]-2-oxo-2,5-dihydro-1H-pyrrol-3-yl]-propionamide], for which the IC50 is less than 5 µM.

In the case of `O=C(CCC1=CCN(CCCc2ccc(Br)cc2)C1=O)NO` [Example 44, 3-{1-[3-(4-bromo-phenyl)-propyl]-2-oxo-2,5-dihydro-1H-pyrrol-3-yl]-N-hydroxy-propionamide], the IC50 is less than 5 µM.

As to `O=C(CCC1=CCN(CCCc2ccc(Cl)cc2)C1=O)NO` [Example 45, 3-{1-[3-(4-chloro-phenyl)-propyl]-2-oxo-2,5-dihydro-1H-pyrrol-3-yl]-N-hydroxy-propionamide], the IC50 is less than 5 µM.

Compound `COc1ccc(CCCN2CC=C(CCC(=O)NO)C2=O)cc1` [Example 46, N-hydroxy-3-{1-[3-(4-methoxy-phenyl)-propyl]-2-oxo-2,5-dihydro-1H-pyrrol-3-yl]-propionamide] had an IC50 of less than 10 µM.

Consider `O=C(CCC1=CCN(Cc2ccc3ccccc3c2)C1=O)NO` [Example 49, N-hydroxy-3-(1-naphthalene-2-ylmethyl-2-oxo-2,5-dihydro-1H-pyrrol-3-yl)-propionamide], for which the IC50 is less than 1 µM.
